Structures can show the parent of a compound that is named as a salt. Where two headings read alike, the source gives them in different places.
What was measured:
Assay type in all cases: cell-based, rabbit (Japan white, male)
[1] = system: platelet activating factor (PAF)-induced rabbit platelet aggregation in plasma; assay: PAF-induced platelet aggregation in rabbit platelet rich plasma
Protocol: (§1) Method: Nine volumes of blood were drawn from the central ear artery of male rabbit (Japan white, 3 kg) directly into plastic syringe containing 1 volume of 3.8% sodium citrate. The blood was centrifuged at 270×g for 10 minutes at room temperature and the platelet rich plasma (PRP) was removed. The pellet was further centrifuged at 1,100×g for 15 minutes. The supernatant was used as platelet poor plasma (PPP). The platelet concentration was adjusted to 5×10^5 cells/μl with PPP. Platelet aggregation was measured by the method of G. V. R. Born and M. J. Cross [Journal of Physiology, 168, 178-195 (1963)] using a HEMA TRACER (Nikou Bio Science, Japan). Varying concentration of compounds were added to the PRP 2 minutes prior to PAF (10^-8 M). The extent of platelet aggregation was determined by the maximum change of light transmission, assigning the transmission of unstimulated PRP to be 0% and that of PPP to be as 100%. Percent inhibition with compound was calculated by dividing the percent aggregation in the presence of compound by that in the control, and then the IC50 values were calculated.

[2] = system: platelet aggregation induced by ADP; assay: platelet aggregation induced by ADP; conditions: ADP 3×10^-6 M; data not shown
Protocol: as §1, with “Varying concentration of compounds were added to the PRP 2 minutes prior to PAF (10^-8 M).” left out

[3] = system: platelet aggregation induced by arachidonic acid; assay: platelet aggregation induced by arachidonic acid; conditions: arachidonic acid 1×10^-4 M; data not shown
Protocol: as §1, with “Varying concentration of compounds were added to the PRP 2 minutes prior to PAF (10^-8 M).” left out

[4] = system: platelet aggregation induced by collagen; assay: platelet aggregation induced by collagen; conditions: collagen 10 μg/ml; data not shown
Protocol: as §1, with “Varying concentration of compounds were added to the PRP 2 minutes prior to PAF (10^-8 M).” left out

[5] = Oryctolagus cuniculus, Platelet, Table 1, PAF 10^-8 M, compound added 2 minutes prior to PAF, rabbit PRP, read-out: IC50
[6] = Oryctolagus cuniculus, Platelet
[7] = Oryctolagus cuniculus, Platelet, PAF 10^-8 M, compound added 2 minutes prior to PAF, rabbit PRP, read-out: IC50 values

Row | Compound | IC50 [1, 5] | other results
1 | CN(Cc1ccccc1)C(=O)C1CSC(c2cccnc2)N1 (stereo not drawn) [Example 22, N-benzyl-N-methyl-2-(3-pyridyl)thiazolidine-4-carboxamide dihydrochloride] | 790 nM | 
2 | CC(C)COc1ccc(CNC(=O)C2CSC(c3cccnc3)N2)cc1 (stereo not drawn) [Example 55] | 160 nM | 
3 | O=C(NC1CCCCC1)C1CSC(c2cccnc2)N1 (stereo not drawn) [Example 34, N-cyclohexyl-2-(3-pyridyl)thiazolidine-4-carboxamide dihydrochloride] |  | IC50 [1, 6]: 950 nM
4 | O=C(C1CSC(c2cccnc2)N1)N1CCC(Cc2ccccc2)CC1 (stereo not drawn) [Example 36, 4-benzyl-1-[2-(3-pyridyl)thiazolidin-4-ylcarbonyl]piperidine dihydrochloride] | 860 nM | 
5 | Cc1ccc(CCCN2CCN(C(=O)C3CSC(c4cccnc4)N3)CC2)cc1 (stereo not drawn) [Example 119] | 79 nM | IC50 [1, 7]: 28 to 85 nM; inhibition of platelet aggregation induced by ADP [2]: did not inhibit; inhibition of platelet aggregation induced by arachidonic acid [3]: did not inhibit; inhibition of platelet aggregation induced by collagen [4]: did not inhibit
6 | CC(C)CCCOc1ccc(CNC(=O)C2CSC(c3cccnc3)N2)cc1 (stereo not drawn) [Example 56] | 120 nM | 
7 | Cl.Cl.Cl.O=C(C1CSC(c2cccnc2)N1)N1CCN(CCCCc2ccccc2)CC1 (stereo not drawn) [Example 49, 1-(4-phenylbutyl)-4-[2-(3-pyridyl)thiazolidin-4-ylcarbonyl]piperazine trihydrochloride] | 85 nM | IC50 [1, 7]: 28 to 85 nM; inhibition of platelet aggregation induced by ADP [2]: did not inhibit; inhibition of platelet aggregation induced by arachidonic acid [3]: did not inhibit; inhibition of platelet aggregation induced by collagen [4]: did not inhibit
8 | CCCCCCN1CCN(C(=O)C2CSC(c3cccnc3)N2)CC1 (stereo not drawn) [Example 92] | 260 nM | 
9 | CCCCCCN1CCN(C(=O)C2CSC(c3cccnc3)N2)CC1 (stereo not drawn) [Example 117] |  | IC50 ([1]; Table 1, PAF 10^-8 M, compound added 2 minutes prior to PAF, rabbit PRP, read-out: IC50): 260 nM
10 | N#Cc1ccc(CCCN2CCN(C(=O)C3CSC(c4cccnc4)N3)CC2)cc1 (stereo not drawn) [Example 128] | 970 nM | 
11 | O=C(NCc1ccc(OCCCOc2ccccc2)cc1)C1CSC(c2cccnc2)N1 (stereo not drawn) [Example 60] | 760 nM | 
12 | O=C(NCc1ccc(OCC2CCCC2)cc1)C1CSC(c2cccnc2)N1 (stereo not drawn) [Example 57] | 200 nM | 
13 | CCCCCCCCN1CCN(C(=O)C2CSC(c3cccnc3)N2)CC1 (stereo not drawn) [Example 90, 1-octyl-4-[2-(3-pyridyl)thiazolidin-4-ylcarbonyl]piperazine fumarate] | 67 nM | IC50 [1, 7]: 28 to 85 nM; inhibition of platelet aggregation induced by ADP [2]: did not inhibit; inhibition of platelet aggregation induced by arachidonic acid [3]: did not inhibit; inhibition of platelet aggregation induced by collagen [4]: did not inhibit
14 | Cc1ncccc1C1NC(C(=O)N2CCN(CCCc3ccccc3)CC2)CS1 (stereo not drawn) [Example 97] | 120 nM | 
15 | CCCCCCCN1CCN(C(=O)C2CSC(c3cccnc3)N2)CC1 (stereo not drawn) [Example 71] | 64 nM | IC50 [1, 7]: 28 to 85 nM; inhibition of platelet aggregation induced by ADP [2]: did not inhibit; inhibition of platelet aggregation induced by arachidonic acid [3]: did not inhibit; inhibition of platelet aggregation induced by collagen [4]: did not inhibit
16 | Cc1ccccc1CCCN1CCN(C(=O)C2CSC(c3cccnc3)N2)CC1 (stereo not drawn) [Example 127] | 460 nM | 
17 | CCCCc1ccc(CNC(=O)C2CSC(c3cccnc3)N2)cc1 (stereo not drawn) [Example 61] | 770 nM | 
18 | O=C(C1CSC(c2cccnc2)N1)N1CCN(c2ccccc2)CC1 (stereo not drawn) [Example 32, trihydrochloride] | 490 nM | 
19 | O=C(CN1CCN(C(=O)C2CSC(c3cccnc3)N2)CC1)c1ccccc1 (stereo not drawn) [Example 66] | 430 nM | 
20 | COc1ccc(CCCN2CCN(C(=O)C3CSC(c4cccnc4)N3)CC2)cc1 (stereo not drawn) [Example 120] | 170 nM | 
21 | O=C(C1CSC(c2cccnc2)N1)N1CCN(CCCOc2ccccc2)CC1 (stereo not drawn) [Example 65] | 120 nM | 
22 | Cc1ccc(CNC(=O)C2CSC(c3cccnc3)N2)cc1 (stereo not drawn) [Example 20, N-(p-Methylbenzyl)-2-(3-pyridyl)thiazolidine-4-carboxamide dihydrochloride] | 800 nM | 
23 | CCCCCCCN1CCCN(C(=O)C2CSC(c3cccnc3)N2)CC1 (stereo not drawn) [Example 80] | 340 nM | 
24 | O=C(NNc1ccccc1)C1CSC(c2cccnc2)N1 (stereo not drawn) [Example 50, N'-phenyl-2-(3-pyridyl)thiazolidine-4-carbohydrazide] | 800 nM | 

Row | Compound | IC50 [1, 5] | other results
25 | O=C(C1CSC(c2cccnc2)N1)N1CCN(CCCc2ccc([N+](=O)[O-])cc2[N+](=O)[O-])CC1 (stereo not drawn) [Example 125] |  | IC50 [1, 6]: 450 nM
26 | CC(CCN1CCN(C(=O)C2CSC(c3cccnc3)N2)CC1)c1ccccc1 (stereo not drawn) [Example 142] |  | IC50 [1, 7]: 28 to 85 nM; inhibition of platelet aggregation induced by ADP [2]: did not inhibit; inhibition of platelet aggregation induced by arachidonic acid [3]: did not inhibit; inhibition of platelet aggregation induced by collagen [4]: did not inhibit
27 | Nc1ccc(CCCN2CCN(C(=O)C3CSC(c4cccnc4)N3)CC2)cc1 (stereo not drawn) [Example 126] | 180 nM | 
28 | O=C(C1CSC(c2cccnc2)N1)N1CCN(CC=Cc2ccccc2)CC1 (stereo not drawn) [Example 64] | 390 nM | 
29 | O=C(NCc1ccc(OCCCCc2ccccc2)cc1)C1CSC(c2cccnc2)N1 (stereo not drawn) [Example 23, N-2-(3-pyridyl)thiazolidine-4-carboxamide dihydrochloride] | 430 nM | 
30 | COc1cc(CNC(=O)C2CSC(c3cccnc3)N2)ccc1OCCCCc1ccccc1 (stereo not drawn) [Example 59] | 210 nM | 
31 | O=C(NCc1ccc(OCCCc2ccccc2)cc1)C1CSC(c2cccnc2)N1 (stereo not drawn) [Example 58] | 390 nM | 
32 | CN(Cc1ccc(OCCCc2ccccc2)cc1)C(=O)C1CSC(c2cccnc2)N1 (stereo not drawn) [Example 89] | 400 nM | 
33 | O=C(CCCN1CCN(C(=O)C2CSC(c3cccnc3)N2)CC1)c1ccc(Br)cc1 (stereo not drawn) [Example 67] | 71 nM | IC50 [1, 7]: 28 to 85 nM; inhibition of platelet aggregation induced by ADP [2]: did not inhibit; inhibition of platelet aggregation induced by arachidonic acid [3]: did not inhibit; inhibition of platelet aggregation induced by collagen [4]: did not inhibit
34 | CC(C)CCOc1ccc(CNC(=O)C2CSC(c3cccnc3)N2)cc1 (stereo not drawn) [Example 54, N-[p-(3-methylbutoxy)benzyl]-2-(3-pyridyl)thiazolidine-4-carboxamide dihydrochloride] | 240 nM | 
35 | O=C(C1CSC(c2cccnc2)N1)N1CCN(CCc2ccccc2)CC1 (stereo not drawn) [Example 84] | 220 nM | 
36 | Cc1ccc(CN2CCN(C(=O)C3CSC(c4cccnc4)N3)CC2)cc1 (stereo not drawn) [Example 63] | 500 nM | 
37 | CCCCCCCCCCN1CCN(C(=O)C2CSC(c3cccnc3)N2)CC1 (stereo not drawn) [Example 81, 1-decyl-4-[2-(3-pyridyl)thiazolidin-4-ylcarbonyl]piperazine trihydrochloride] | 28 nM | IC50 [1, 7]: 28 to 85 nM; inhibition of platelet aggregation induced by ADP [2]: did not inhibit; inhibition of platelet aggregation induced by arachidonic acid [3]: did not inhibit; inhibition of platelet aggregation induced by collagen [4]: did not inhibit
38 | O=C(C1CSC(c2cccnc2)N1)N1CCC(CCc2ccccc2)CC1 (stereo not drawn) [Example 72] | 900 nM | 
39 | O=C(C1CSC(c2cccnc2)N1)N1CCCN(Cc2ccccc2)CC1 (stereo not drawn) [Example 76] | 900 nM | 
40 | O=C(C1CSC(c2cccnc2)N1)N1CCN(CCCc2ccc(F)cc2)CC1 (stereo not drawn) [Example 124] | 180 nM | 
41 | O=C(C1CSC(c2cccnc2)N1)N1CCN(CCCCCc2ccccc2)CC1 (stereo not drawn) [Example 85] | 72 nM | IC50 [1, 7]: 28 to 85 nM; inhibition of platelet aggregation induced by ADP [2]: did not inhibit; inhibition of platelet aggregation induced by arachidonic acid [3]: did not inhibit; inhibition of platelet aggregation induced by collagen [4]: did not inhibit
42 | O=C(C1CSC(c2cccnc2)N1)N1CCN(CCCc2ccc(O)cc2)CC1 (stereo not drawn) [Example 121] | 190 nM | 
43 | CC(C)CCCN1CCN(C(=O)C2CSC(c3cccnc3)N2)CC1 (stereo not drawn) [Example 93] | 630 nM | 
44 | O=C(C1CSC(c2cccnc2)N1)N1CCC(c2ccccc2)CC1 (stereo not drawn) [Example 46, 4-phenyl-1-[2-(3-pyridyl)thiazolidin-4-ylcarbonyl]piperidine dihydrochloride] | 650 nM | 
45 | CCCCCCCOc1ccc(CNC(=O)C2CSC(c3cccnc3)N2)cc1 (stereo not drawn) [Example 24, N-(p-Heptyloxybenzyl)-2-(3-pyridyl)thiazolidine-4-carboxamide dihydrochloride] | 250 nM | 
46 | O=C(C1CSC(c2cccnc2)N1)N1CCN(Cc2ccccc2)CC1 (stereo not drawn) [Example 48, 1-benzyl-4-[2(3-pyridyl)thiazolidin-4-ylcarbonyl]piperazine trihydrochloride] | 450 nM | 
47 | O=C(C1CSC(c2cccnc2)N1)N1CCN(CCCc2ccc(Cl)cc2)CC1 (stereo not drawn) [Example 123] | 180 nM | 
